# Test results: patent US20100062465A1, “Detection of Histone Deacetylase Inhibition” (priority 2006, published 2010)
# Structures can show the parent of a compound that is named as a salt.
# Biological target: T1, recombinant HDAC8 (Homo sapiens, UniProt Q9BY41)
# T1 construct: purchased Biomol
# T1 sequence (Q9BY41 1-377): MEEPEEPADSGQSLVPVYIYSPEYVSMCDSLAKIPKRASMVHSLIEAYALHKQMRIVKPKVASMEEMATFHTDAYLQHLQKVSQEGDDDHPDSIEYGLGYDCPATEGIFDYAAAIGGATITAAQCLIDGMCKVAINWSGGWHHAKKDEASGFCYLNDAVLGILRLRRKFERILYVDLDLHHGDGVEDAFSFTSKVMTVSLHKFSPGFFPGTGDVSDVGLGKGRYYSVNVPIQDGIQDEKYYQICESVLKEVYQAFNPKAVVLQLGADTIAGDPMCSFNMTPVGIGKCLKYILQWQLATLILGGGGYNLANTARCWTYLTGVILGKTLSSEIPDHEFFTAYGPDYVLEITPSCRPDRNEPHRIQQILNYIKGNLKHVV
# Experiment: 19F MRS study of BLT cleavage by recombinant HDAC8
# Format: biochemical
# Conditions: 0.6 mM BLT, 28U HDAC-8
# Experimental: To confirm that MRS can be used to monitor cleavage of the HDAC substrate, 0.6 mM BLT (Advance Chem-Tech, KY USA) was incubated alone or with 28U recombinant HDAC-8 (Biomol PA) in a total volume of 500 μl HDAC assay buffer (Biomol PA. USA, composed of 25 mM Tris/Cl, 137 mM NaCl, 2.7 mM KCl, 1 mM MgCl2 and formulated to maintain HDAC activity). ^19F MRS was used to monitor the decrease in BLT and buildup of the cleavage product trifluoroacetate (TFA) by acquiring ^1H decoupled spectra at 10 min intervals on an Avance DPX 300 Bruker spectrometer (Bruker Biospin, Germany) using a 30 deg. flip angle, 3 s relaxation delay and 128 scans. A sealed insert containing C6F6 served as a quantification and chemical shift reference (−164.9 ppm relative to CFCl3).
compound,measurement,value
"CC(C)(C)OC(=O)N[C@@H](CCCCNC(=O)C(F)(F)F)C(=O)O [BLT, Boc-Lys-TFA-OH]",Cleavage by recombinant HDAC8 monitored by 19F MRS,substrate of HDAC8
